The source of these data is patent US8003615B2, “Stable vitamin B6 derivative” (Daiichi Fine Chemical Co., Ltd., priority 2003, dated 2011).

A short description of data set [1]: Thermal stability of aqueous solution kept at 50° C., HPLC. It counts as physicochemical. The settings on record: 0.5% (w/v) aqueous solution; for coloring of the aqueous solution after the warming: 50° C. for 90 days; for decomposed by warming: pH about 6.3-7.2, 50° C. for 90 days. The procedure: A 0.5% (w/v) aqueous solution of pyridoxine 3-β-D-glucoside (pH 6.7) in a volume of 0.3 ml was sealed in a 1-ml volume glass ampoule, and kept at 50° C. under light shielding. The sample was warmed for 90 days, and analyzed during the warming by HPLC (analysis conditions were the same as those applied in Test Example 1) to measure a pyridoxine 3-β-D-glucoside content. A solution of pyridoxine hydrochloride of the same concentration (adjusted to pH 6.7) was treated in the same manner, and the results were compared.
Aqueous solutions (0.5% (w/v)) of pyridoxine 3-β-D-glucoside hydrochloride, pyridoxal 3-β-D-glucoside, pyridoxamine 3-β-D-glucoside, pyridoxine 3-β-D-galactoside, pyridoxine hydrochloride, pyridoxal hydrochloride, and pyridoxamine hydrochloride (adjusted to pH 6.3 to 7.2 with HCl or NaOH) were each sealed in a volume of 0.3 ml in a 1-ml volume glass ampoule, […] in the same manner as in Test Example 2.
0.5% (w/v) Aqueous solutions of pyridoxine 3,4′-cyclic sodium phosphate and pyridoxine hydrochloride (adjusted to pH 6.5 to 6.8) were each sealed in a volume of 0.3 ml in a 1-ml volume glass ampoule, and warming at 50° C. and HPLC analysis were performed in the same manner as in Test Example 2.

The format of data set [2] is physicochemical. The following applies: 0.5% (w/v) aqueous solution; for coloring of the aqueous solution after the light irradiation: D65 fluorescent lamp 13,000 Lx; for decomposition after light irradiation: pH about 6.3-7.2, D65 fluorescent lamp 13,000 Lx, room temperature, 14 days. Here is the method: A 0.5% (w/v) aqueous solution of pyridoxine 3-β-D-glucoside (pH 6.7) in a volume of 0.3 ml was enclosed in a 1-ml volume glass ampoule, and irradiated with a D65 fluorescent lamp (Toshiba) for 14 days. The irradiation was performed at room temperature with an illumination of 13,000 Lx. Samples before the irradiation and after 1 day, 7 days and 14 days of the irradiation were analyzed by HPLC to measure a pyridoxine 3-β-D-glucoside content. A solution of pyridoxine hydrochloride of the same concentration (adjusted to pH 6.7) was treated in the same manner, and the results were compared. The HPLC measurement conditions were as follows.
Column: Inertsil ODS-3 ([…], ([…], φ4.6×150 mm, GL Science Inc.)
Eluent acetonitrile:0.1% (v/v) trifluoroacetic acid, 5 mM sodium 1-hexanesulfonate=1:9
Column temperature: 40° C.
Aqueous solutions (0.5% (w/v)) of pyridoxine 3-β-D-glucoside hydrochloride, pyridoxal 3-β-D-glucoside, pyridoxamine 3-β-D-glucoside, pyridoxine 3-β-D-galactoside, and pyridoxine hydrochloride (adjusted to pH 6.3 to 7.2 with HCl or NaOH) were each sealed in a volume of 0.3 ml in a 1-ml volume glass ampoule, and light irradiation and HPLC quantification were performed in the same manner as in Test Example 1. […] Test Example 4 (thermal stability of pyridoxine 3-β-D-glucoside hydrochloride and various 3-glycosides) […]

Data set [3] has as its system mouse B16 melanoma cells. Put plainly: Test for melanin production suppression and cell survival rate in cultured cells. The following applies: for Evaluation (whitening degree of B16 melanoma cells): control 100 μg/ml kojic acid; for Cell growth rate: relative to control taken as 100%; for suppressing effect on melanin production: overall conclusion from the tables. Further details: key to Evaluation (whitening degree of B16 melanoma cells): +: whitening effect comparable to that of the control; ±: whitening effect a little weaker than that of the control; ×: no effect; −: test was not performed. It counts as cell-based. Here is the method:
Cultured mouse B16 melanoma cells were used. An appropriate amount of MEM medium containing 10% FBS was added to wells of two 6-well plates, and the B16 melanoma cells were inoculated, and incubated at 37° C. with 5 volume % CO2. On the next day, a sample-containing solution was added so that the medium contained the vitamin B6 derivative (pyridoxine 3-β-D-glucoside or pyridoxine 3-β-D-glucoside hydrochloride) at a final solid concentrations shown in FIG. 20, and then mixed. On the 5th day of the culture, the medium was exchanged, and the sample-containing solution was again added. On the next day, the medium was removed, and for one plate, the cells were washed with phosphate buffer (pH 7.0), and then collected. Then, whitening degree of the cultured B16 melanoma cells was evaluated according to the criteria mentioned below by using 100 μg/ml kojic acid as a control. […] The cell growth rate is indicated with a relative ratio based on that of the control, which is taken as 100%.

For data set [4], the system named is mouse B16 melanoma cells. Put plainly: Melanin production suppression by combination with whitening agent (arbutin). The settings on record: substance and arbutin each 100 μM, 5 days culture, intracellular melanin relative to solvent control. It counts as cell-based. Here is the method:
Cultured mouse B16 melanoma cells were used. A vitamin B6 derivative (pyridoxine 3-β-D-glucoside) and arbutin (Wako Pure Chemical Industries) dissolved in purified water at given concentrations were each added to the medium at a concentration of 100 μM. With exchanges of the medium during the culture, the cells were cultured for 5 days, and then collected. The cell number was counted, and then intracellular melanin was quantified. As a control added with a solvent, the medium added with purified water was used. Based on the amount of the melanin observed for the control added with the solvent, which was taken as 1, the relative amount of intracellular melanin observed for each sample concentration was considered a melanin production ratio.

The subject of the next data set is hairless mouse. The following applies: 2% sample applied on the back 90 minutes before ultraviolet irradiation, 2 hours, 5 times/week, ten weeks; positive control DETAPAC.
The conditions of data set [5]: 50° C., in pharmaceutical preparations; cited from earlier work.
Where [6] appears, read: final concentration 333.3 μg/mL.

Experimental for hairless mouse: It was evaluated whether or not the sample prepared by the following preparing method suppressed wrinkle formation caused by ultraviolet irradiation.
DETAPAC was used as a positive control.
Mice (10-week old) in each group consisting of 8 mice were applied with each of the aforementioned samples on the back 90 minutes before ultraviolet irradiation, and irradiated with ultraviolet rays of a fixed quantity (Toshiba FL20 S-BLB lamp) for 2 hours (5 times/week) over ten weeks to examine suppressing effect on wrinkle formation.
Wrinkle formation after the ultraviolet irradiation of ten weeks was graded in accordance with the “skin photoaging grades” mentioned below. The results were indicated as averages of the scores for eight mice.

In the case of `Cc1ncc(CO)c(CO)c1O[C@@H]1O[C@H](CO)[C@@H](O)[C@H](O)[C@H]1O` [pyridoxine 3-β-D-glucoside, Pyridoxine 3-β-D-glucoside], the “coloring of the aqueous solution after the warming” value (“coloring … after the warming” for short) in data set [1] is recorded as “no coloring was observed”. The decomposed by warming result in data set [1] was “almost no decomposition”. The “coloring of the aqueous solution after the light irradiation” value (from here on “coloring … after the light irradiation”) in data set [2] is “no coloring was observed”. Moreover, the “decomposition after light irradiation” value in data set [2] was “not observed”. Further, the “Evaluation (whitening degree of B16 melanoma cells)” value (“Evaluation” for short) in the data set with mouse B16 melanoma cells [3] (final concentration 10 μg/mL) is “×”; in the data set with mouse B16 melanoma cells [3] (final concentration 30 μg/mL), “×”; with mouse B16 melanoma cells [3] (final concentration 100 μg/mL), “×”; in the data set on mouse B16 melanoma cells [3] (final concentration 300 μg/mL) it was “±”; with mouse B16 melanoma cells [3] (final concentration 1000 μg/mL), “+”. In addition, the Cell growth rate in the data set on mouse B16 melanoma cells [3] (final concentration 10 μg/mL) was 101%; in the data set on mouse B16 melanoma cells [3] (final concentration 30 μg/mL), 101%; with mouse B16 melanoma cells [3] (final concentration 100 μg/mL) it was 101%; in the data set on mouse B16 melanoma cells [3] (final concentration 300 μg/mL), 101%; in the data set with mouse B16 melanoma cells [3] (final concentration 1000 μg/mL), 102%. The “suppressing effect on melanin production” value with mouse B16 melanoma cells [3] is “superior suppressing effect on melanin production”. Further, the “suppressing effect on melanin production in combination with arbutin” value in the data set on mouse B16 melanoma cells [4] is “superior suppressing effect on melanin production”.
With `Cc1ncc(CO)c(CN)c1O.Cl` [pyridoxamine hydrochloride, reference compound], in data set [1], the “coloring … after the warming” value is “colored in yellow” and the decomposed by warming is given as about 85%.
Consider `Cc1ncc(CO)c(C=O)c1O[C@@H]1O[C@H](CO)[C@@H](O)[C@H](O)[C@H]1O` [pyridoxal 3-β-D-glucoside, Pyridoxal 3-β-D-glucoside], for which, in data set [1], the “coloring … after the warming” value is given as “no coloring was observed” and the decomposed by warming entry is recorded as “almost no decomposition”. Further, the “coloring … after the light irradiation” value in data set [2] is on record as “no coloring was observed”.
As for `Cc1ncc(CO)c(CO)c1O[C@@H]1O[C@H](CO)[C@@H](O)[C@H](O)[C@H]1O.Cl` [pyridoxine 3-β-D-glucoside hydrochloride], the “suppressing effect on wrinkle formation (skin photoaging grades)” value in the data set on hairless mouse was “comparable to or higher than that of DETAPAC”. In addition, in data set [1], the “coloring … after the warming” value is “no coloring was observed” and the decomposed by warming entry is reported as “almost no decomposition”. Moreover, in data set [2], the “coloring … after the light irradiation” value is “no coloring was observed” and the “decomposition after light irradiation” value is “not observed”. In the data set with mouse B16 melanoma cells [3] (final concentration 100 μg/mL), the “Evaluation” value was “×” and the Cell growth rate turned out to be 100%. Further, in the data set on mouse B16 melanoma cells [3] (setting [6]), the “Evaluation” value is on record as “×” and the Cell growth rate was determined as 100%. In the data set on mouse B16 melanoma cells [3] (final concentration 1000 μg/mL), the “Evaluation” value is “×” and the Cell growth rate turned out to be 97%. Further, in the data set on mouse B16 melanoma cells [3] (final concentration 3333 μg/mL), the “Evaluation” value was “+” and the Cell growth rate came out at 87%. For the same molecule, the “suppressing effect on melanin production” value in the data set with mouse B16 melanoma cells [3] is listed as “superior suppressing effect on melanin production”.
Regarding `Cc1ncc(CO)c(CO[C@H]2O[C@H](CO)[C@@H](O)[C@H](O)[C@H]2O)c1O` [pyridoxine 4′-α-D-glucoside], in data set [5], the “long term stability compared with pyridoxine hydrochloride” value is recorded as “superior long term stability”.
For `Cc1ncc(CO)c2c1OP(=O)([O-])OC2.[Na+]` [pyridoxine 3,4′-cyclic sodium phosphate, Pyridoxine 3,4′-cyclic sodium phosphate], in data set [1], the “coloring … after the warming” value is given as “no coloring was observed” and the decomposed by warming entry is “almost no decomposition”. For the same molecule, in data set [2], the “decomposition after light irradiation” value is given as “no decomposition was observed”.
Consider “N-(4-pyridoxylmethylene)-L-serine 3-β-D-glucoside”, for which the “decomposition after light irradiation” value in data set [2] is listed as “no decomposition was observed”.
As for `Cc1ncc(CO)c(CO)c1O[C@@H]1O[C@H](CO)[C@H](O)[C@H](O)[C@H]1O` [pyridoxine 3-β-D-galactoside, Pyridoxine 3-β-D-galactoside], in data set [1], the “coloring … after the warming” value is on record as “no coloring was observed” and the decomposed by warming result is reported as “almost no decomposition”. Moreover, in data set [2], the “coloring … after the light irradiation” value is reported as “no coloring was observed” and the “decomposition after light irradiation” value was “not observed”.
As for `Cc1ncc(CO)c(C=O)c1O.Cl` [pyridoxal hydrochloride, reference compound], in data set [1], the “coloring … after the warming” value is “colored in yellow” and the decomposed by warming is about 55%.
For the molecule `Cc1ncc(CO)c(CN)c1O[C@@H]1O[C@H](CO)[C@@H](O)[C@H](O)[C@H]1O` [pyridoxamine 3-β-D-glucoside, Pyridoxamine 3-β-D-glucoside], in data set [1], the “coloring … after the warming” value is given as “no coloring was observed” and the decomposed by warming result is “almost no decomposition”. In data set [2], the “coloring … after the light irradiation” value was “no coloring was observed” and the “decomposition after light irradiation” value is “not observed”.
